Results taken from US8106053B2, “5-phenyl-3-pyridazinone derivative” (Kowa Company, Ltd., priority 2007, dated 2012).

What was measured:
[1] = test system: PAI-1 production in human airway epithelial cells (BEAS-2B); assay: Activity of inhibiting PAI-1 production using airway epithelial cells (TGF-β stimulated, ELISA); format: cell-based; conditions: BEAS-2B cells, 24 hours, PAI-1 in culture supernatant by ELISA
Experimental: The effect of a compound on PAI-1 production activity using airway epithelial cells was examined. This reflects PAI-1 concentration in the lung tissue related to fibrosis (lung).
The effect on the amount of PAI-1 produced using human airway epithelial cells (BEAS-2B) was examined. After 0.1 ml each of BEAS-2B cells prepared at 2×10^6 cells/ml was added to a collagen I-coated 96-well plate, preincubated for 24 hours, 0.1 ml of a medium containing […] TGF-β was added thereto and incubated for 24 hours, the amount of PAI-1 in the culture supernatant was determined using an ELISA kit. The test substance was dissolved in dimethyl sulfoxide (final concentration, 0.1% or less), and was prepared at 0.2, 1, 5 and 25 μM using a phosphate buffer, and added after preculturing. The activity of inhibiting PAI-1 production of the compound of the present invention was expressed in terms of the IC50 value and shown in Table 2.

[2] = test system: C57BL/6 mice, bleomycin-induced pulmonary fibrosis; assay: Bleomycin-induced pulmonary fibrosis model, amount of lung hydroxyproline; format: in vivo; conditions: 0.3 mg/kg orally once daily, three weeks after intratracheal bleomycin 6 mg/kg, relative to solvent-administration group
Source text: It has been reported that bleomycin administration into the trachea leads to pulmonary fibrosis. Its pathological findings including the hypertrophy and fibrosis of the alveolar wall, increased inflammatory cells, the increased amount of hydroxyproline etc. are similar to clinical idiopathic pulmonary fibrosis, and it has been often used as an experimental model of pulmonary fibrosis (Biochem. Biophys. Res. Comm. 288, 747 (2001)). To C57BL/6 mice (6-week-old, female), bleomycin hydrochloride (Bleo: NIPPON KAYAKU CO., LTD) (6 mg/kg, 25 μl/animal) was injected into the bronchus together with 500 μl of compressed air. Three weeks after administration into the trachea, the amount of hydroxyproline in the lung was determined. 0.3 mg/kg of the test substance was suspended in 0.5% carboxymethyl cellulose sodium, and orally administered once daily. The effect of the compound of the present invention was expressed in the inhibition percentage relative to the increased amount of lung hydroxyproline of the solvent-administration group, and shown in Table 3.

Compound | IC50 [1] [µM] | Inhibition percentage relative to the increased amount of pulmonary hydroxyproline [2] [%] | IC50 ([1]; Homo sapiens) [µM]
5-(3-(cyclopropylmethyl)-4-methoxyphenyl)-2-methylpyridazin-3-one [Compound No. 2] | 16.8 | 66 | –
5-(4-methoxy-3-(tetrahydrofuranyloxy)phenyl)-2-phenylpyridazin-3-one [Compound No. 9] | – | 117 | –
COc1ccc(-c2cn[nH]c(=O)c2)cc1OC [Compound No. 1, 5-(3,4-dimethoxyphenyl)pyridazin-3-one] | – | – | 14.1
COc1ccc(-c2cnn(C)c(=O)c2)cc1OC1CCCC1 [Compound No. 3, 5-(3-(cyclopentyloxy)-4-methoxyphenyl)-2-methylpyridazin-3-one] | – | 68 | 5.8
COc1ccc(-c2cn[nH]c(=O)c2)cc1OC1CCOC1 (centres unmarked) [Compound No. 4, 5-(4-methoxy-3-(3-tetrahydrofuranyloxy)phenyl)pyridazin-3-one] | – | – | 8.4
COc1ccc(-c2cnn(-c3ccccc3)c(=O)c2)cc1OC1CCCC1 [Compound No. 6, 5-(3-(cyclopentyloxy)-4-methoxyphenyl)-2-phenylpyridazin-3-one] | – | 84 | –
COc1ccc(-c2cnn(C)c(=O)c2)cc1OC1CCOC1 (centres unmarked) [Compound No. 12, 5-(4-methoxy-3-(3-tetrahydrofuranyloxy)phenyl)-2-methylpyridazin-3-one] | – | – | 4
COc1ccc(-c2cnn(C)c(=O)c2)cc1O[C@H]1CCOC1 [Compound No. 16, (S)-5-(4-methoxy-3-(3-tetrahydrofuranyloxy)phenyl)-2-methylpyridazin-3-one] | – | – | 23.2
COc1ccc(-c2cnn(Cc3ccc4ccccc4n3)c(=O)c2)cc1OC1CCCC1 [Compound No. 19, 5-(3-(cyclopentyloxy)-4-methoxyphenyl)-2-(2-quinolylmethyl)pyridazin-3-one] | – | 132 | –
